Measurements taken from PubChem BioAssay AID248 (DTP/NCI, 2004).
“And” between values parts separate entries of the source, which are not always exact repeats. Equal entries are not always repeated. Toxic doses and inconclusive results are not listed. No stated cut-off is given here; in the data, active means T/C of 150% or more; inactive means T/C below 125%.

System: L1210 leukemia ip in BDF1 mice, survival T/C
Assay: NCI In Vivo Anticancer Drug Screen. Data for tumor model L1210 Leukemia (intraperitoneal) in B6D2F1 (BDF1) mice
Settings: endpoint: mean survival time, higher = longer survival
How it was run: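 Survival endpoint. Drug-treated group vs vehicle group, expressed as T divided by C. Tumor passaged by transplantation.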

[1] = dose: 75.0 mg/kg/injection, schedule: Q01DX001 (ip), vehicle: saline
[2] = dose: 150.0 mg/kg/injection, schedule: Q01DX001 (ip), vehicle: saline
[3] = dose: 100.0 mg/kg/injection, schedule: Q01DX001 (ip), vehicle: saline
[4] = dose: 200.0 mg/kg/injection, schedule: Q01DX001 (ip), vehicle: saline
[5] = dose: 12.5 mg/kg/injection, schedule: Q01DX009 (ip), vehicle: Klucel (hydroxypropylcellulose) (HPC)
[6] = dose: 25.0 mg/kg/injection, schedule: Q01DX009 (ip), vehicle: Klucel (hydroxypropylcellulose) (HPC)
[7] = dose: 50.0 mg/kg/injection, schedule: Q01DX009 (ip), vehicle: Klucel (hydroxypropylcellulose) (HPC)
[8] = dose: 25.0 mg/kg/injection, schedule: Q04DX003 (ip), vehicle: saline with Tween-80
[9] = dose: 50.0 mg/kg/injection, schedule: Q04DX003 (ip), vehicle: saline with Tween-80
[10] = dose: 100.0 mg/kg/injection, schedule: Q04DX003 (ip), vehicle: saline with Tween-80
[11] = dose: 100.0 mg/kg/injection, schedule: Q01DX009 (ip), vehicle: Klucel (hydroxypropylcellulose) (HPC)
[12] = dose: 100.0 mg/kg/injection, schedule: Q04DX003 (ip), vehicle: Klucel (hydroxypropylcellulose) (HPC)
[13] = dose: 200.0 mg/kg/injection, schedule: Q04DX003 (ip), vehicle: Klucel (hydroxypropylcellulose) (HPC)
[14] = dose: 400.0 mg/kg/injection, schedule: Q04DX003 (ip), vehicle: Klucel (hydroxypropylcellulose) (HPC)

Measured: T/C

CCCCCCCNc1ccc(C(=O)O)cc1
inactive: dose: 37.5 mg/kg/injection, schedule: Q01DX009 (ip), vehicle: saline 105 % of control | [1] 93 % of control | dose: 75.0 mg/kg/injection, schedule: Q01DX009 (ip), vehicle: saline 94 % of control | dose: 75.0 mg/kg/injection, schedule: Q04DX003 (ip), vehicle: saline 105 % of control | [2] 104 % of control | dose: 150.0 mg/kg/injection, schedule: Q01DX009 (ip), vehicle: saline 98 % of control | dose: 150.0 mg/kg/injection, schedule: Q04DX003 (ip), vehicle: saline 109 % of control | dose: 300.0 mg/kg/injection, schedule: Q01DX001 (ip), vehicle: saline 102 % of control | dose: 300.0 mg/kg/injection, schedule: Q04DX003 (ip), vehicle: saline 102 % of control

C=C1CCC2CCCN2C1=O (stereo unspecified)
inactive: dose: 25.0 mg/kg/injection, schedule: Q01DX001 (ip), vehicle: saline 94 % of control | dose: 50.0 mg/kg/injection, schedule: Q01DX001 (ip), vehicle: saline 97 % of control | [3] 108 % of control | [4] 87 % of control

O=C1C2C(C(=O)N1c1cccc3ccccc13)C1(Cl)C(Cl)=C(Cl)C2(Cl)C1(Cl)Cl (stereo unspecified)
inactive: [5] 103 % of control | [6] 104 % of control | [7] 96 % of control

COc1ccc(COC2C(O)C(CO)OC2n2cnc3c(N)ncnc32)cc1 (stereo unspecified)
inactive: dose: 100.0 mg/kg/injection, schedule: Q01DX005 (ip), vehicle: saline 92 % of control | dose: 200.0 mg/kg/injection, schedule: Q01DX005 (ip), vehicle: saline 94 % of control

COC(=O)C(Br)C(=O)OC
inactive: dose: 12.5 mg/kg/injection, schedule: Q04DX002 (ip), vehicle: saline with Tween-80 97 % of control | dose: 25.0 mg/kg/injection, schedule: Q04DX002 (ip), vehicle: saline with Tween-80 97 % of control

COC(=O)C(C)CC(C)(C)[N+](=O)[O-] (stereo unspecified)
inactive: dose: 100.0 mg/kg/injection, schedule: Q01DX009 (ip), vehicle: saline with Tween-80 97 % of control | dose: 200.0 mg/kg/injection, schedule: Q01DX009 (ip), vehicle: saline with Tween-80 103 % of control | dose: 400.0 mg/kg/injection, schedule: Q01DX009 (ip), vehicle: saline with Tween-80 97 % of control

Cc1ccc(-n2c(O)c(N=Nc3ccc(Br)cc3)c(=O)n(-c3ccc(Br)cc3)c2=S)cc1
inactive: dose: 50.0 mg/kg/injection, schedule: Q01DX001 (ip), vehicle: Klucel (hydroxypropylcellulose) (HPC) 100 % of control | dose: 100.0 mg/kg/injection, schedule: Q01DX001 (ip), vehicle: Klucel (hydroxypropylcellulose) (HPC) 109 % of control | dose: 200.0 mg/kg/injection, schedule: Q01DX001 (ip), vehicle: Klucel (hydroxypropylcellulose) (HPC) 106 % of control

COc1ccc(/C=c2\[nH]c(=O)/c(=C/c3ccc(OC)c(OC)c3)[nH]c2=O)cc1OC
inactive: [8] 92 % of control | [9] 89 % of control | [10] 86 % of control

NCCc1cnc(N=Nc2ccc(C(=O)O)cc2)[nH]1
inactive: [7] 89 % of control | [11] 89 % of control | dose: 200.0 mg/kg/injection, schedule: Q01DX009 (ip), vehicle: Klucel (hydroxypropylcellulose) (HPC) 87 % of control

CCOC(=O)CNc1ccc(F)c(F)c1
inactive: dose: 100.0 mg/kg/injection, schedule: Q04DX002 (ip), vehicle: Klucel (hydroxypropylcellulose) (HPC) 97 % of control | dose: 200.0 mg/kg/injection, schedule: Q04DX002 (ip), vehicle: Klucel (hydroxypropylcellulose) (HPC) 90 % of control | dose: 400.0 mg/kg/injection, schedule: Q04DX002 (ip), vehicle: Klucel (hydroxypropylcellulose) (HPC) 103 % of control

S=C1NCCCS1
inactive: [5] 93 % of control | [6] 104 % of control | [7] 98 % of control | [11] 101 % of control | [12] 98 % of control | [13] 95 % of control | [14] 104 % of control

O=C1NC(=S)SC1C(Cc1ccccc1)Cc1ccccc1 (stereo unspecified)
inactive: [3] 97 % of control | [4] 97 % of control | dose: 400.0 mg/kg/injection, schedule: Q01DX001 (ip), vehicle: saline 101 % of control

N/N=C1\CC(=O)NC(=O)N1
inactive: [1] 90 % of control | [2] 96 % of control

CC(C)(C)O.[Zr]
inactive: dose: 25.0 mg/kg/injection, schedule: Q01DX009 (ip), vehicle: other 108 % of control | dose: 50.0 mg/kg/injection, schedule: Q01DX009 (ip), vehicle: other 97 % of control | dose: 100.0 mg/kg/injection, schedule: Q01DX009 (ip), vehicle: other 90 % of control | dose: 100.0 mg/kg/injection, schedule: Q04DX003 (ip), vehicle: saline 96 % of control | dose: 200.0 mg/kg/injection, schedule: Q01DX009 (ip), vehicle: other 103 % of control | dose: 200.0 mg/kg/injection, schedule: Q04DX003 (ip), vehicle: saline 98 % of control | dose: 400.0 mg/kg/injection, schedule: Q04DX003 (ip), vehicle: saline 94 % of control

Cc1cc(S(=O)(=O)O)c(N)cc1Cl
inactive: [10] 99 % of control | dose: 200.0 mg/kg/injection, schedule: Q04DX003 (ip), vehicle: saline with Tween-80 97 % of control | dose: 400.0 mg/kg/injection, schedule: Q04DX003 (ip), vehicle: saline with Tween-80 100 % of control

CC(=O)OC1CCC2(C)C3CCC4(C)C(c5ccc(=O)oc5)CC5OC54C3CCC2(O)C1 (stereo unspecified)
inactive: dose: 1.0 mg/kg/injection, schedule: Q01DX001 (sc), vehicle: steriod suspending solution 98 % of control | dose: 2.0 mg/kg/injection, schedule: Q01DX001 (sc), vehicle: steriod suspending solution 96 % of control | dose: 4.0 mg/kg/injection, schedule: Q01DX001 (sc), vehicle: steriod suspending solution 96 % of control | dose: 8.0 mg/kg/injection, schedule: Q01DX001 (sc), vehicle: steriod suspending solution 107 % of control | dose: 12.0 mg/kg/injection, schedule: Q01DX001 (sc), vehicle: steriod suspending solution 113 % of control | dose: 16.0 mg/kg/injection, schedule: Q01DX001 (sc), vehicle: steriod suspending solution 107 % of control | dose: 32.0 mg/kg/injection, schedule: Q01DX001 (sc), vehicle: steriod suspending solution 114 % of control | dose: 64.0 mg/kg/injection, schedule: Q01DX001 (sc), vehicle: steriod suspending solution 103 % of control | dose: 128.0 mg/kg/injection, schedule: Q01DX001 (sc), vehicle: steriod suspending solution 115 % of control

COCN1CCN(COC)C1=O
inactive: dose: 100.0 mg/kg/injection, schedule: Q04DX002 (ip), vehicle: saline 105 % of control | dose: 200.0 mg/kg/injection, schedule: Q04DX002 (ip), vehicle: saline 108 % of control | dose: 400.0 mg/kg/injection, schedule: Q04DX002 (ip), vehicle: saline 122 % of control

NC(=S)N/N=C/c1cc(Cl)ccc1O
inactive: dose: 100.0 mg/kg/injection, schedule: Q01DX001 (ip), vehicle: carboxymethylcellulose (CMC) 94 % of control | dose: 200.0 mg/kg/injection, schedule: Q01DX001 (ip), vehicle: carboxymethylcellulose (CMC) 100 % of control | dose: 400.0 mg/kg/injection, schedule: Q01DX001 (ip), vehicle: carboxymethylcellulose (CMC) 96 % of control

CN(Cc1ccccc1)c1ccc2nc(N)nc(N)c2c1
inactive: [8] 105 % of control | [9] 98 % of control | [10] 108 % of control

CN(C)CCOC(c1ccccc1)c1ccccc1
inactive: dose: 3.12 mg/kg/injection, schedule: Q01DX009 (ip), vehicle: saline 92 % of control and 96 % of control | dose: 6.25 mg/kg/injection, schedule: Q01DX009 (ip), vehicle: saline 102 % of control and 107 % of control | dose: 12.5 mg/kg/injection, schedule: Q01DX009 (ip), vehicle: saline 100 % of control and 114 % of control | dose: 25.0 mg/kg/injection, schedule: Q01DX009 (ip), vehicle: saline 100 % of control and 102 % of control | dose: 25.0 mg/kg/injection, schedule: Q04DX003 (ip), vehicle: saline 97 % of control | dose: 50.0 mg/kg/injection, schedule: Q01DX009 (ip), vehicle: saline 117 % of control and 91 % of control | dose: 50.0 mg/kg/injection, schedule: Q04DX003 (ip), vehicle: saline 111 % of control

Cc1c(N2CCCCC2)[nH]c2ccccc12
inactive: [11] 87 % of control | [12] 96 % of control | [13] 95 % of control | [14] 88 % of control
